From patent US12268683B2, “Compounds and methods for synergistic activation of M channels” (THE REGENTS OF THE UNIVERSITY OF CALIFORNIA, priority 2018, dated 2025)

Tests used:
Assay type in all cases: cell-based
KCNQ1-R243A/KCNE1 = KCNQ1-R243A/KCNE1 (Homo sapiens, UniProt P51787, R243A); test: TEVC of R243A KCNQ1/KCNE1 channels
Text: (§1) As previously described (12), we generated cRNA transcripts encoding human KCNA1, KCNE1, KCNE2, KCNE3, KCNQ1, KCNQ2, KCNQ3, KCNQ4 or KCNQ5 by in vitro transcription using the T7 polymerase mMessage mMachine kit (Thermo Fisher Scientific), after vector linearization, from cDNA sub-cloned into plasmids incorporating Xenopus laevis β-globin 5′ and 3′ UTRs flanking the coding region to enhance translation and cRNA stability. We quantified cRNA by spectrophotometry. We generated mutant KCNQ2 and KCNQ3 cDNAs by site-directed mutagenesis with a QuikChange kit (Stratagene, San Diego, Calif.) and prepared the cRNAs as above. We injected defolliculated stage V and VI Xenopus laevis oocytes (Ecocyte Bioscience, Austin, Tex. and Xenoocyte, Dexter, Mich., US) with KCNE and/or KCNQ cRNAs (5-20 ng). […]
(§2) We performed TEVC at room temperature using an OC-725C amplifier (Warner Instruments, Hamden, Conn.) and pClamp10 software (Molecular Devices, Sunnyvale, Calif.) 2-5 days after cRNA injection as described in the section above. […] We recorded currents in response to voltage pulses between −120 or −80 mV and +40 mV at 20 mV intervals from a holding potential of −80 mV, to yield current-voltage relationships, current magnitude, and for quantifying activation rate. We analyzed data using Clampfit (Molecular Devices) and Graphpad Prism software (GraphPad, San Diego, Calif., USA); values are stated as mean±SEM. […]

KCNQ1-R243A = KCNQ1-R243A (Homo sapiens, UniProt P51787, R243A); test: TEVC of R243A KCNQ1 channels
Text: as §1, §2

KCNQ3/KCNQ5 = KCNQ3/KCNQ5 (Homo sapiens, UniProt O43525+Q9NR82); test: TEVC of KCNQ3/KCNQ5 channels; settings: similar potency
Text: as §1, §2

KCNQ1/KCNE3 = KCNQ1/KCNE3 (Homo sapiens, UniProt P51787); test: TEVC of KCNQ1/KCNE3 channels
Text: as §1, §2

KCNA1 = KCNA1 (Homo sapiens, UniProt Q09470); test: TEVC of KCNA1 expressed in Xenopus oocytes
Sequence of KCNA1 (Q09470 whole entry): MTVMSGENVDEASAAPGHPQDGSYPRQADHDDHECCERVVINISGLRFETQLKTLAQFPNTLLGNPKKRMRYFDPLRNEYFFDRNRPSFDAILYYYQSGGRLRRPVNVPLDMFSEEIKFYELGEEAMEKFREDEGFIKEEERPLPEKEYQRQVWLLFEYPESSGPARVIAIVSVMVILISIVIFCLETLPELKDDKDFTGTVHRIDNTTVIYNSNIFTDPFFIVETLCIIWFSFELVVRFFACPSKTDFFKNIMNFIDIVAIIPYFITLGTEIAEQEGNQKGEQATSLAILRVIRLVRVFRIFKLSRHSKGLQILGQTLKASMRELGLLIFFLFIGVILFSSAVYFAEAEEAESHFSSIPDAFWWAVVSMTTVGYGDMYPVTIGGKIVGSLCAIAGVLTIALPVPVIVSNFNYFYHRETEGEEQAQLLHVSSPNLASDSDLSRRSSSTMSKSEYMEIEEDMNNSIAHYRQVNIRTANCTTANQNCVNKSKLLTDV
Text: cRNA transcripts encoding human KCNA1, KCNQ1, KCNQ2, KCNQ3, KCNQ4, or KCNQ5 were generated by in vitro transcription using the T7 polymerase message machine kit (Thermo Fisher Scientific), after vector linearization, from cDNA sub-cloned into plasmids incorporating X. laevis β-globin 5′ and 3′ UTRs flanking the coding region to enhance translation and cRNA stability. cRNA was quantified by spectrophotometry. Mutant cDNAs were generated by site-directed mutagenesis using a QuikChange kit according to manufacturer's protocol (Stratagene, San Diego, Calif.) and corresponding cRNAs prepared as above. Defolliculated stage V and VI X. laevis oocytes (Ecocyte Bioscience, Austin, Tex.) were injected with Kv channel a subunit cRNAs (10 ng total per oocyte). […]
TEVC recording was performed at room temperature with an OC-725C amplifier (Warner Instruments, Hamden, Conn.) and pClamp10.2 software (Molecular Devices, Sunnyvale, Calif.) 3-5 days after cRNA injection as described in the section above. […] Currents were recorded in response to pulses between −80 and +40 mV at 20 mV intervals, or a single pulse to +40 mV, from a holding potential of −80 mV, to yield current-voltage relationships, current magnitude, and for quantifying activation rate. […]

Compound | effect of R243A mutation on (E)-2-dodecenal action in KCNQ1/KCNE1 (KCNQ1-R243A/KCNE1) | effect of R243A mutation on (E)-2-dodecenal action in KCNQ1 (KCNQ1-R243A) | efficacy on KCNQ3/KCNQ5, lower than on KCNQ5 (KCNQ3/KCNQ5) [%] | effect on KCNQ1/KCNE3 (in words) (KCNQ1/KCNE3) | effect on KCNA1 (in words) (KCNA1)
CCCCCCCCC/C=C/C=O [(E)-2-dodecenal] | reduced (E)-2-dodecenal efficacy twofold | slightly increased (E)-2-dodecenal efficacy | ~30 | activated | 
CC(=O)c1c(O)c(C)c(O)c(Cc2c(O)c3c(c(C(=O)/C=C/c4ccccc4)c2O)OC(C)(C)C=C3)c1O [MTX, mallotoxin] |  |  |  |  | no effect
